The numbers were not newly measured in patent US20060147533A1, “Antimicrobial biomaterial for blood bags” (priority 2004, published 2006), which cites them from elsewhere.

The conditions of the data set: humans; recoveries reported following ingestion of higher doses.

In the case of `O=[N+]([O-])[O-].[Ag+]` [silver nitrate], the estimated fatal dose was 10 grams.
